Experiments:
[1] = system: trifluridine (FTD) resistant strain of colon cancer cell strain DLD-1; experiment: IC50 measurement on trifluridine resistant strain derived from DLD-1; format: cell-based; conditions: Homo sapiens; DLD-1 maintained 6 months or longer in the presence of trifluridine; confirmed resistant strain; read-out: IC50 with respect to trifluridine for the cultured cells
Procedure: Quantitative analysis of a microRNA was performed by tunneling current measurement. Colon cancer cell strain (DLD1) and 5-fluorouracil (5-FU) or trifluridine (FTD) resistant strains were used as samples.
Cancer cell strain DLD-1 obtained from a cell bank was maintained in a culture for 6 months or longer in the presence of trifluridine or 5-fluorouracil (Aldrich-Sigma) (about […]). The maintained culture was passaged about twice a week to maintain 60 to 80% confluence at 37° C. in a
DMEM medium supplemented with 10% serum on a plastic dish.

[2] = system: 5-fluorouracil (5-FU) resistant strain of colon cancer cell strain DLD-1; experiment: IC50 measurement on 5-fluorouracil resistant strain derived from DLD-1; format: cell-based; conditions: Homo sapiens; DLD-1 maintained 6 months or longer in the presence of 5-fluorouracil; confirmed resistant strain; read-out: IC50 with respect to 5-fluorouracil for the cultured cells

IC50 [1] [µM]	IC50 [2] [µM]	Compound
300		O=c1[nH]c(=O)n([C@H]2C[C@H](O)[C@@H](CO)O2)cc1C(F)(F)F [trifluridine]
	300	O=c1[nH]cc(F)c(=O)[nH]1 [5-fluorouracil]

Source: patent US20230194472A1, “MICRORNA ANALYSIS USING TUNNELING CURRENT” (Osaka University, priority 2019, published 2023)
